Assay results as given in patent US6686462B2 (The Regents of the University of California, priority 1997, dated 2004).
Several values for one entry are separate records, joined by “and”; a condition that tells them apart may be missing. Equal values may be shown once. Where a name gives a salt, the structure may show the parent alone. Read-outs that look alike come from different tables or passages of the source. Values belong to the molecule of their own block, whether it stands above or below them.

Legend:
HIV-1 [1] = test: microbe, parasite or virus in culture; settings: for EC50: Human immunodeficiency virus 1, read-out: EC50(HIV-1)
Description: (§2) (EC50 is concentration to reduce HIV plaques by 50% and expressed as mean ±standard deviation).

LAI-E89K = test: HIV plaque reduction assay, PFA-resistant strain; format: cell-based, HIV-1
Method: (§3) Compounds of the invention were tested in a plaque-forming assay of HIV-1 proliferation in a human CD4+lymphocytic cell line (HT-4) by the procedures described in K. Y. Hostetler et al., J. Biol. Chem., 265:6112-6117 (1990); and K. Y. Hostetler et al., J. Biol. Chem., 266:11714-11717 (1991). […] (EC50 is concentration to reduce HIV plaques by 50% and expressed as mean ±standard deviation).
(§4) The assays were conducted by procedures of Example 27 above and as disclosed in K. Y. Hostetler et al., J. Biol. Chem., 265:6112-6117 (1990); and K. Y. Hostetler et al., J. Biol. Chem., 266:11714-11717 (1991).

A018-post [2] = test: HIV plaque reduction assay, AZT-resistant strain; format: cell-based, HIV-1; settings: Human immunodeficiency virus 1
Method: as §3, §4

HIV-1LAI = test: HIV plaque reduction assay, wild-type strain; format: cell-based; settings: Human immunodeficiency virus 1
Method: as §3, §4

[3] = system: human T-Lymphoblastic Leukemia Cells (CEM cells); test: Toxicity in CEM cells by propidium iodide staining and flow cytometry; format: cell-based; settings: for Selectivity Index: TC50 in CEM cells / EC50; for CC50: rapidly dividing CEM cells, viable cell numbers, read-out: TC50 (the source's name)
Method: TC50 values were also assessed by exposing rapidly dividing human T-Lymphoblastic Leukemia Cells (CEM cells) to selected compounds of the invention and PFA. Viable cell numbers were determined by propidium iodide staining and fluorescent flow cytometry according to procedures disclosed in Dangl et al., Cytometry, 2:395-401 (1982).

[4] = Toxicity in HT4-6C cells by visual grading of cell morphology; settings: human
Method: (§1) Selected compounds of the invention and PFA were tested for activity in HT4-6C cell by procedures disclosed in B. A. Larder et al., Science, 243:1731-1734 (1989). […] The TC50 values were determined using the following visual grading scale after 3 days to exposure to the tested drug compound: 4—normal appearance; 3—slight reduction of normal cells; 2-50% of cells appear normal; 1—sparse number of normal appearing cells; 0—no living cells. Values reported in the Table below are mean ±standard deviation.

HT4-6C cells = test: as above; settings: for Selectivity Index: TC50/EC50, HT4-6C cells
Method: as §1

A018-post [5] = settings: AZT-resistant, AZT data from Larder et al., Science 1989; cited from earlier work
HIV-1 [6] = settings: for reduction of the number of viral plaques: at 1 μM, the highest concentration achievable in the growth medium
Description: as §2

SMILES: O=C(O)P(=O)(O)O [PFA, phosphonoformic acid, reference compound]
IC50 (HIV-1 [1]; Human immunodeficiency virus 1, read-out: IC50 (HIV-1)): 133 µM
EC50 (LAI-E89K; Human immunodeficiency virus 1): > 1000 µM
EC50 (A018-post [2]): 65 ± 13 µM
EC50 (HIV-1LAI): 133 ± 54 µM

melting point: 224 °C (dec.)
SMILES: CCCCCCCCCCCCCCCCCCOC(=O)O[PH](=O)OC[C@H]1O[C@@H](n2cc(C)c(=O)[nH]c2=O)C[C@@H]1N=[N+]=[N-] (some centres unmarked) [Example 20, 3′-azido-3′-deoxy-5′-O-(1-octadecyloxycarbonyloxyphosphinyl)thymidine]

SMILES: CCCCCCCCCCCCCCCCCCOC(=O)P(=O)(O)OC (as salt: sodium) [Example 8, Sodium Methyl 1-octadecyloxycarbonylphosphonate]
melting point: 92 to 93 °C

SMILES: CCCCCCCCCCCCCCCCCCOC(=O)P(=O)(O)OC[C@H]1O[C@@H](n2cc(C)c(=O)[nH]c2=O)C[C@@H]1N=[N+]=[N-] [Example 20]
EC50 (LAI-E89K; Human immunodeficiency virus 1): 0.13 ± 0.14 µM
Selectivity Index [3]: 280
CC50 [3]: 28 µM
EC50 (A018-post [2]): 0.3 ± 0.32 µM
CC50 at 3 days [4]: 10 µM
Selectivity Index (HT4-6C cells): 100
EC50 (HIV-1LAI): 0.1 ± 0.15 µM

SMILES: Cc1cn([C@H]2C[C@H](N=[N+]=[N-])[C@@H](CO)O2)c(=O)[nH]c1=O [AZT, 3′-azido-3′-deoxythymidine]
EC50 (HIV-1 [1]): 0.007 µM
EC50 (A018-post [5]): 4 µM and 2.3 µM
EC50 (LAI-E89K; Human immunodeficiency virus 1): 0.009 ± 0.005 µM
EC50 (HIV-1LAI): 0.013 ± 0.006 µM

SMILES: Cc1cn([C@H]2C[C@H](N=[N+]=[N-])[C@@H](COP(=O)(O)C(=O)O[C@H]3CC[C@@]4(C)C(=CC[C@H]5[C@@H]6CC[C@H]([C@H](C)CCCC(C)C)[C@@]6(C)CC[C@@H]54)C3)O2)c(=O)[nH]c1=O [Example 23]
IC50 (HIV-1 [6]; read-out: IC50 (HIV-1), plaque-forming assay, HT-4 cells): 0.25 µM

SMILES: CCCCCCCCCCCCCCCCCCOC(=O)P(=O)(O)OC [Example 8, Sodium Methyl 1-octadecyloxycarbonylphosphonate]
CC50 at 3 days [4]: 10 µM
reduction of the number of viral plaques (HIV-1 [6]; HT-4 cells): 35%

SMILES: CCCCCCCCCCCCCCCCOCCCOP(=O)(O)C(=O)OC[C@H]1O[C@@H](n2cc(C)c(=O)[nH]c2=O)C[C@@H]1N=[N+]=[N-] [Example 25]
EC50 (LAI-E89K; LAI-E89K, PFA-resistant, mean ± SD of 3 experiments, Example 25: single test value, read-out: EC50): 1.3 µM
CC50 [3]: 65 µM

SMILES: CCCCCCCCCCCCCCCCCCCCOC(=O)P(=O)(O)OC [Example 9, Sodium Methyl 1-eicosanyloxycarbonylphosphonate]
CC50 at 3 days [4]: 10 µM
reduction of the number of viral plaques (HIV-1 [6]; HT-4 cells): 35%

SMILES: CCCCCCCCCCCCCCCCCCCCCCOC(=O)P(=O)(O)OC[C@H]1O[C@@H](n2cc(C)c(=O)[nH]c2=O)C[C@@H]1N=[N+]=[N-] [Example 22]
EC50 (LAI-E89K; Human immunodeficiency virus 1): 0.17 ± 0.11 µM
Selectivity Index [3]: 291
CC50 [3]: 93 µM
EC50 (A018-post [2]): 0.77 ± 1.1 µM
CC50 at 3 days [4]: 320 µM
Selectivity Index (HT4-6C cells): 1000
EC50 (HIV-1LAI): 0.32 ± 0.2 µM

melting point: 230 °C (dec.)
SMILES: CCCCCCCCCCCCCCCCCCCCOC(=O)O[PH](=O)OC[C@H]1O[C@@H](n2cc(C)c(=O)[nH]c2=O)C[C@@H]1N=[N+]=[N-] (some centres unmarked) [Example 21]

melting point: 238 °C (dec.)
SMILES: CCCCCCCCCCCCCCCCCCCCCCOC(=O)O[PH](=O)OC[C@H]1O[C@@H](n2cc(C)c(=O)[nH]c2=O)C[C@@H]1N=[N+]=[N-] (some centres unmarked) [Example 22, 3′-Azido-3′-deoxy-5′-O-(1-docosanyloxycarbonyloxyphosphinyl) thymidine]

SMILES: CCCCCCCCCCCCCCCCCCCCOC(=O)P(=O)(O)OC (as salt: sodium) [Example 9, Sodium Methyl 1-eicosanyloxycarbonylphosphonate]
melting point: 95 to 96 °C

SMILES: CCCCCCCCCCCCCCCCCCCCOC(=O)P(=O)(O)OC[C@H]1O[C@@H](n2cc(C)c(=O)[nH]c2=O)C[C@@H]1N=[N+]=[N-] [Example 21]
EC50 (HIV-1 [1]): 0.05 µM
EC50 (LAI-E89K; Human immunodeficiency virus 1): 0.009 ± 0.007 µM
Selectivity Index [3]: 257
CC50 [3]: 36 µM
EC50 (A018-post [2]): 0.53 ± 0.68 µM
CC50 at 3 days [4]: 32 µM
Selectivity Index (HT4-6C cells): 228
cytotoxicity (HT4-6C cells; at 0.1-1.0 μM): slight to moderate
cytotoxicity (HT4-6C cells; at 10 and 100 μM): significant
therapeutic selectivity (HT4-6C cells; toxic concentration over EC50(HIV-1)): ca. 200
fold less active than AZT (HIV-1 [6]; EC50(HIV-1) compared with AZT): 7 fold
times more active than PFA (HIV-1 [6]; EC50(HIV-1) compared with PFA): 2,800 times
EC50 (HIV-1LAI): 0.14 ± 0.16 µM
